Source: article PMC11350758, “Development of Xanthoangelol-Derived Compounds with Membrane-Disrupting Effects against Gram-Positive Bacteria” (Antibiotics, 2024)
Converted amounts (≈) assume the structure as drawn.

Legend:
[1] = system: Pseudomonas aeruginosa ATCC27853, penicillin-susceptible strain; test: MIC, broth microdilution; format: cell-based; conditions: Pseudomonas aeruginosa ATCC27853; read-out: MIC P. a. 27853
Method: (§1) All target derivatives were assessed for their in vitro antibacterial activities using a broth microdilution assay to test their minimum inhibitory concentrations (MICs) against six Gram-positive strains (S. aureus ATCC31007, S. aureus ATCC25923, S. aureus ATCC43300, E. faecalis ATCC29212, B. subtilis ATCC9372, and S. epidermidis ATCC12228) and four Gram-negative strains (A. baumannii ATCC19606, K. pneumonia ATCC10031, E. coli ATCC25922, and P. aeruginosa ATCC27853). These compounds were also evaluated for their hemolytic activities and membrane selectivity by determining their HC50 (the concentration required to lyse 50% of red blood cells) and SI (HC50/MICs) values, respectively, and vancomycin was used as the positive drug.
(§2) MICs of the derivatives were determined by the micro broth dilution method according to the American Clinical and Laboratory Standards Institute (CLSI) standards. Briefly, 2-fold serial dilutions of target compounds were prepared in 96-well plates containing TSB broth. An equal volume of bacterial suspension (10^6 CFU/mL) was then pipetted into each well, and the mixture was incubated at 37 °C for 24 h. […] All biological experiments were repeated three times.

[2] = system: Staphylococcus aureus ATCC25923, erythromycin-susceptible strain; test: MIC, broth microdilution; format: cell-based; conditions: Staphylococcus aureus ATCC25923; read-out: MIC S. a. 25923
Method: as §1, §2

[3] = system: Klebsiella pneumonia ATCC10031; test: MIC, broth microdilution; format: cell-based; conditions: Klebsiella pneumoniae; Klebsiella pneumonia ATCC10031; read-out: MIC K. p. 10031
Method: as §1, §2

[4] = system: Bacillus subtilis ATCC9372, penicillin-susceptible strain; test: MIC, broth microdilution; format: cell-based; conditions: Bacillus subtilis ATCC9372; read-out: MIC B. s. 9372
Method: as §1, §2

[5] = system: Escherichia coli ATCC25922, penicillin-susceptible strain; test: MIC, broth microdilution; format: cell-based; conditions: Escherichia coli ATCC25922; read-out: MIC E. c. 25922
Method: as §1, §2

[6] = system: Enterococcus faecalis ATCC29212, vancomycin-susceptible strain; test: MIC, broth microdilution; format: cell-based; conditions: Enterococcus faecalis ATCC29212; read-out: MIC E. f. 29212
Method: as §1, §2

[7] = system: Staphylococcus aureus ATCC31007, penicillin-resistant strain; test: MIC, broth microdilution; format: cell-based; conditions: Staphylococcus aureus ATCC31007; read-out: MIC S. a. 31007
Method: as §1, §2

[8] = system: Acinetobacter baumannii ATCC19606; test: MIC, broth microdilution; format: cell-based; conditions: Acinetobacter baumannii ATCC19606; read-out: MIC A. b. 19606
Method: as §1, §2

[9] = system: Staphylococcus epidermidis ATCC12228, erythromycin-susceptible strain; test: MIC, broth microdilution; format: cell-based; conditions: Staphylococcus epidermidis ATCC12228; read-out: MIC S. e. 12228
Method: as §1, §2

red blood cells = test: Hemolysis assay; format: cell-based, Sheep; conditions: concentration required to lyse 50% of red blood cells; 37 °C, 1 h
Method: as §1
To further detect the hemolytic toxicity and therapeutic potential of these derivatives, we proceeded to examine the hemolytic activities and membrane selectivity of these derivatives. The HC50 value was defined as the concentration needed for a compound to lyse 50% of red blood cells, and it is often used to evaluate the hemolytic toxicity to eukaryotic cells. […] The selectivity index (SI) was calculated by HC50/MICs of S. aureus ATCC43300 and was used to assess the potency and safety of the compounds. […] Thus, compound 9h was selected as a representative molecule for the in-depth in vitro and in vivo studies.
Sheep blood was used to isolate red blood cells (RBCs), which were then resuspended in 1× PBS (5%). The compounds were dissolved in PBS to give an initial concentration of 5.12 mg/mL, compound solution (100 μL) was added to the first well of a 96-well plate, two-fold serial dilutions of compounds were prepared in 96-well plates, and then 150 μL of 5% RBC suspension was added to each well. This was followed by incubation at 37 °C for 1 h. After incubation, the plate was centrifuged (3500 rpm, 5 min), and 100 μL of supernatant solution from each well was carefully pipetted into a new plate. The absorbance values were measured at 540 nm. Erythrocyte hemolysis rate = (Absorbancecompound – Absorbance negative control)/(Absorbance1% Triton X-100 − Absorbance negative control) × 100%. All biological experiments were repeated three times.

[10] = system: Staphylococcus aureus ATCC43300, methicillin-resistant strain; test: microbe, parasite or virus in culture; format: cell-based; conditions: ATCC 43300 / MRSA; Staphylococcus aureus ATCC43300 (MRSA); read-out: MIC S. a 43300
Method: as §1, §2

[11] = system: Enterococcus faecium ATCC51559, vancomycin-resistant strain; test: MIC, broth microdilution; format: cell-based; conditions: Enterococcus faecium ATCC51559, vancomycin-resistant; read-out: MIC E. f. 51559
Method: as §2

[12] = system: Enterococcus faecalis ATCC51299, vancomycin-resistant strain; test: MIC, broth microdilution; format: cell-based; conditions: Enterococcus faecalis ATCC51299, vancomycin-resistant; read-out: MIC E. f. 51299
Method: as §2

S. aureus = test: MIC, summary over the S. aureus strains tested; format: cell-based; conditions: Staphylococcus aureus; over the three S. aureus strains tested; read-out: MICs against S. aureus
Method: as §1, §2

[13] = system: Gram-positive strains tested; test: MIC, summary over the Gram-positive strains tested; format: cell-based; conditions: read-out: MICs against the Gram-positive strains tested, range over the Gram-positive panel
Method: as §1, §2

Structure (SMILES)	MIC [1]	MIC [2]	MIC [3]	MIC [4]	MIC [5]	MIC [6]	MIC [7]	MIC [8]	MIC [9]	HC50 (red blood cells)	MIC [10]	MIC [11]	MIC [12]	MIC (S. aureus)	MIC [13]
CC[N+](CC)(CC)CCCOc1c(C(C)=O)ccc2c1C=CC(C)(CCC=C(C)C)O2 (stereo not shown) [Compound 5a, 3-((6-Acetyl-2-methyl-2-(4-methylpent-3-en-1-yl)-2H-chromen-5-yl)oxy)-N,N,N-triethylpropan-1-aminium]	> 128 µg/mL	8 µg/mL	128 µg/mL	64 µg/mL	> 128 µg/mL	64 µg/mL	128 µg/mL	> 128 µg/mL	64 µg/mL	571.5 µg/mL	64 µg/mL	16 µg/mL	16 µg/mL	8 to 128 µg/mL	
CCN(CC)CCCOc1c(C(C)=O)ccc2c1C=CC(C)(CCC=C(C)C)O2 (stereo not shown) [Compound 5c, 1-(5-(3-(Diethylamino)propoxy)-2-methyl-2-(4-methylpent-3-en-1-yl)-2H-chromen-6-yl)ethan-1-one]	32 µg/mL (≈ 80.1 µM)	32 µg/mL (≈ 80.1 µM)	16 µg/mL (≈ 40 µM)	16 µg/mL (≈ 40 µM)	128 µg/mL (≈ 320 µM)	32 µg/mL (≈ 80.1 µM)	32 µg/mL (≈ 80.1 µM)	32 µg/mL (≈ 80.1 µM)	16 µg/mL (≈ 40 µM)	324.1 µg/mL	32 µg/mL (≈ 80.1 µM)	64 µg/mL (≈ 160 µM)	128 µg/mL (≈ 320 µM)	8 to 128 µg/mL (≈ 20 to 320 µM)	
CC(=O)c1ccc2c(c1OCCCN(C)CC(C)(C)CN(C)C)C=CC(C)(CCC=C(C)C)O2 (stereo not shown) [Compound 5g, 1-(5-(3-((3-(Dimethylamino)-2,2-dimethylpropyl)(methyl)amino)propoxy)-2-methyl-2-(4-methylpent-3-en-1-yl)-2H-chromen-6-yl)ethan-1-one]	128 µg/mL (≈ 272 µM)	8 µg/mL (≈ 17 µM)	4 µg/mL (≈ 8.5 µM)	8 µg/mL (≈ 17 µM)	16 µg/mL (≈ 34 µM)	8 µg/mL (≈ 17 µM)	8 µg/mL (≈ 17 µM)	8 µg/mL (≈ 17 µM)	4 µg/mL (≈ 8.5 µM)	183.1 µg/mL	8 µg/mL (≈ 17 µM)	16 µg/mL (≈ 34 µM)	32 µg/mL (≈ 68 µM)	8 µg/mL (≈ 17 µM)	
CC(=O)c1ccc2c(c1OCCCNCCCN1CCCC1)C=CC(C)(CCC=C(C)C)O2 (stereo not shown) [Compound 5h]	16 µg/mL (≈ 35.2 µM)	8 µg/mL (≈ 17.6 µM)	8 µg/mL (≈ 17.6 µM)	8 µg/mL (≈ 17.6 µM)	8 µg/mL (≈ 17.6 µM)	8 µg/mL (≈ 17.6 µM)	8 µg/mL (≈ 17.6 µM)	4 µg/mL (≈ 8.8 µM)	4 µg/mL (≈ 8.8 µM)	84.7 µg/mL	8 µg/mL (≈ 17.6 µM)	32 µg/mL (≈ 70.4 µM)	32 µg/mL (≈ 70.4 µM)	8 µg/mL (≈ 17.6 µM)	
CC[N+](CC)(CC)CCCOc1c2c(c3c(c1C(C)=O)OC(C)(CCC=C(C)C)C=C3)OC(C)(CCC=C(C)C)C=C2 (stereo not shown) [Compound 9a, 3-((6-Acetyl-2,8-dimethyl-2,8-bis(4-methylpent-3-en-1-yl)-2H,8H-pyrano[2,3-f]chromen-5-yl)oxy)-N,N,N-triethylpropan-1-aminium]	> 128 µg/mL	2 µg/mL	> 128 µg/mL	1 µg/mL	> 128 µg/mL	4 µg/mL	4 µg/mL	128 µg/mL	2 µg/mL	40.4 µg/mL	4 µg/mL	4 µg/mL	4 µg/mL	2 to 4 µg/mL	
CCN(CC)CCCOc1c2c(c3c(c1C(C)=O)OC(C)(CCC=C(C)C)C=C3)OC(C)(CCC=C(C)C)C=C2 (stereo not shown) [Compound 9c, 1-(5-(3-(Diethylamino)propoxy)-2,8-dimethyl-2,8-bis(4-methylpent-3-en-1-yl)-2H,8H-pyrano[2,3-f]chromen-6-yl)ethan-1-one]	> 128 µg/mL	2 µg/mL (≈ 3.64 µM)	> 128 µg/mL	2 µg/mL (≈ 3.64 µM)	> 128 µg/mL	1 µg/mL (≈ 1.82 µM)	2 µg/mL (≈ 3.64 µM)	> 128 µg/mL	1 µg/mL (≈ 1.82 µM)	187.6 µg/mL	4 µg/mL (≈ 7.28 µM)	4 µg/mL (≈ 7.28 µM)	8 µg/mL (≈ 14.6 µM)	2 to 4 µg/mL (≈ 3.64 to 7.28 µM)	
CC(=O)c1c(OCCCN2CC(C)OC(C)C2)c2c(c3c1OC(C)(CCC=C(C)C)C=C3)OC(C)(CCC=C(C)C)C=C2 (stereo not shown) [Compound 9d, 1-(5-(3-(2,6-Dimethylmorpholino)propoxy)-2,8-dimethyl-2,8-bis(4-methylpent-3-en-1-yl)-2H,8H-pyrano[2,3-f]chromen-6-yl)ethan-1-one]	> 128 µg/mL	> 128 µg/mL	> 128 µg/mL	> 128 µg/mL	> 128 µg/mL	> 128 µg/mL	> 128 µg/mL	> 128 µg/mL	> 128 µg/mL	>1280 µg/mL	> 128 µg/mL	> 128 µg/mL	> 128 µg/mL		> 64 µg/mL
CC(=O)c1c(OCCCSC(=N)N)c2c(c3c1OC(C)(CCC=C(C)C)C=C3)OC(C)(CCC=C(C)C)C=C2 (stereo not shown) [Compound 9e, 2-(3-((6-Acetyl-2,8-dimethyl-2,8-bis(4-methylpent-3-en-1-yl)-2H,8H-pyrano[2,3-f]chromen-5-yl)oxy)propyl)isothiouronium]	> 128 µg/mL	8 µg/mL (≈ 14.5 µM)	> 128 µg/mL	64 µg/mL (≈ 116 µM)	> 128 µg/mL	64 µg/mL (≈ 116 µM)	128 µg/mL (≈ 232 µM)	> 128 µg/mL	128 µg/mL (≈ 232 µM)	>1280 µg/mL	64 µg/mL (≈ 116 µM)	> 128 µg/mL	> 128 µg/mL		> 64 µg/mL
